Data on seven compounds can be found in patent publication US9259000B2, “Auxin biosynthesis inhibitor” (Riken, priority 2011, dated 2016).

Molecules are shown by their SMILES.

Holding throughout (type): in vivo
For test [1], the system named is Tobacco. Description: Growth test, Tobacco. The note with it: compound 100 μM, 7 days after transfer. The procedure: Tobacco was cultured in a plate vertically set and using ½ MS medium containing 1.5% sucrose and 0.8% agar under continuous white light at 25° C. for 7 days. Thereafter, tobacco was transferred to a plate vertically set and using ½ MS medium containing 1.5% sucrose, 0.8% agar and the compound of the present invention (100 μM) and cultured under continuous white light at 25° C. for 7 days.

Test [2] concerns Arabidopsis. Description: Growth recovery test with IAA, Arabidopsis. The note with it: 8 days. As to the method: Arabidopsis was cultured in a plate vertically set and using ½ MS medium containing 1.5% sucrose, 0.8% agar (0.6% Gelrite in the case of KOK1169), the compound of the present invention and IAA under continuous white light at 22° C. for 8 days. […] In the test, KOK1101 (30 μM), KOK1160 (30 μM), KOK1165 (30 μM), and KOK1169 (100 μM) were studied.

Test [3] concerns Lettuce. In words: Growth test, Lettuce. As to conditions: 30 μM, 6 days. As to the method: Lettuce was cultured in a plate vertically set and using ½ MS medium containing 1.5% sucrose, 0.8% agar and KOK1101 (30 μM) under continuous white light at 25° C. for 6 days.
Test [4] concerns Rice (Nipponbare). In words: Growth test, Rice. The note with it: 50 μM, 6th day after transfer, vs DMSO control.
In test [5] the test system is Tomato (Momotaro). In words: Growth test, Tomato. The note with it: 100 μM, 6th day after transfer, vs DMSO control.
Test [6] deals with Physcomitrella patens subsp. patens. In words: Growth test, Physcomitrella patens subsp. patens. As to conditions: 100 μM, 7th day after transfer, vs DMSO control.
The mark [7] stands for this setting: compound 100 μM + IAA 10 nM, 0.6% Gelrite.

For `NOC(Cc1cccc(Cl)c1)C(=O)O` (centres unmarked) [KOK 1187], the “Note (morphology)” value in test [1] is “Auxin-excess like morphology”.
Turning to `COC(=O)[C@H](Cc1ccccc1)ON1C(=O)c2ccccc2C1=O` [KOK 1101], in test [2] (compound 30 μM + IAA 10 nM), the “main root elongation, recovery by simultaneous application with IAA” value (“main root elongation, recovery” below) was “recovered”. For the same compound, the “growth of an aerial part, recovery by simultaneous application with IAA” value (from here on “growth of an aerial part, recovery”) in test [2] (compound 30 μM + IAA 100 nM) was “recovered”. Besides, in test [3], the “growth of the aerial part” value is “Apparent growth inhibition”, the “main root elongation (underground part)” value is reported as “promotion” and the “root hair formation (underground part)” value is “inhibition”.
In the case of `COC(=O)[C@H](Cc1cccc2ccccc12)ON1C(=O)c2ccccc2C1=O` [KOK 1160], in test [2] (compound 30 μM + IAA 10 nM), the “growth of an aerial part, recovery” value is given as “recovered” and the “main root elongation, recovery” value is reported as “recovered”.
On to `COC(=O)[C@H](Cc1ccc2ccccc2c1)ON1C(=O)c2ccccc2C1=O` [KOK 1165], for which, in test [2] (compound 30 μM + IAA 10 nM), the “growth of an aerial part, recovery” value is recorded as “recovered” and the “main root elongation, recovery” value is listed as “recovered”.
`NO[C@@H](Cc1ccc2ccccc2c1)C(=O)O` [KOK 1169]: in test [2] (setting [7]), the “growth of an aerial part, recovery” value is reported as “recovered” and the “main root elongation, recovery” value was “recovered”.
Take `COC(=O)[C@H](Cc1ccc2ccccc2c1)ON` [KOK 1168]: the growth of seedling result in test [4] is on record as “remarkably inhibited”. Moreover, the growth of seedling entry in test [5] is reported as “remarkably inhibited”. For the same compound, in test [6], the differentiation into forage entry is “inhibited” and the growth of protonemata result was “remarkably inhibited”.
In the case of `NO[C@@H](Cc1cccc2ccccc12)C(=O)O` [KOK 1167], in test [1], the “Note (morphology)” value is “Auxin-excess like morphology”.
